Where “and” joins values, the source holds several entries; their conditions need not be identical. Identical values can stand only once.

A short description of data set [1]: Urine Coc level of patient on codeine. The format is in vivo, human. The settings on record: Table J, patient four. The method, then:
(§1) Shown in FIG. 13 are mean nup values for codeine as a function of daily, total dose. […]. Her mean codeine level while stabilized on 90 mg of codeine qd, as shown on FIG. 13, should be 19,102 +/-3840 ng/ml.

The conditions of data set [2]: in vivo. From the text: To determine compliance with the prescribed medication dose, random urine samples are obtained from the patient and analyzed in accordance with the invention as described in FIG. 9. […] The raw urine medication concentration (u) is next converted to a normalized urine medication concentration (nu) as discussed below. Over time, a normalized urine medication concentration-daily medication dose relationship is derived for each individual patient, which can be compared to the relationship expected for that particular patient. Alternatively, by adjusting the normalized urine medication concentration relative to the urinary pharmacokinetic parameters for each medication, a urinary-parameter normalized urine medication concentration (nup) may be calculated and compared to that expected for an average patient to determine compliance with the patient's prescribe medication dose.
nu=u'=u·(v/v')=u·UVPRF=u·(k1
The relationships for any medication family between nu and the medication pharmacokinetic parameters are empirically developed using regression analysis.
nup (patient body weight/k3)·u·UVPRF (19)
Two methods of interpreting urine medication results for compliance monitoring have now been developed. The first and most primitive method is to simply establish, using data from controls and compliant patients, mean drug levels and the expected ranges (minimums and maximums) for the nup of each particular medication at each particular daily, total dose amount.

Data set [3] in a line: Urine opiate concentration (codeine, oxycodone), urinary-parameter normalized. The format is in vivo, human. As for the experimental part:
as §1
patient three is a person requiring opioid medications for severe arachnoiditis following surgery in the lumber spine. They were prescribed oxycodone without acetaminophen since they are status post removal of one kidney because of renal carcinoma. Shown in Table K are their oxycodone levels (40 mg per day total dose) which are within acceptable limits of 800-1600 ng/ml.

Data set [4] in a line: Urine methadone concentration (FPIA) of maintenance patients, with calculated plasma methadone concentration and urinary-parameter normalized urine concentration. The source says:
The unadulterated sample is next analyzed for raw urine methadone concentration, preferably using fluorescence polarization immunoassay (FPIA) technology. In this regard an Abbott TDX or ADX Analyzer may be profitably employed. Other standard analytical methods may also be used such as chromatography or other types of immunoassay. […]
where cl is renal clearance (ml/min), u is raw urine methadone concentration (ng/ml), v is the volume of urine collected in time (ml/min) or otherwise known as the urine volume production rate, and p is the measured plasma methadone concentration at the midpoint of the collection period (ng/ml).
Combining all of the above considerations, plasma methadone concentrations can be calculated by substituting Equations (2, 8, 9 and 10) in Equation (3): [formula] where values of u, specific gravity, and pH are known from previous test results on a patient's spot urine sample. The equation may be more generally expressed as follows: […]
p=k3 ·u·(k1 SGF-k2)/k4
FIG. 6 was developed by utilizing data from 8300 urine samples from 150 methadone maintenance patients on controlled daily methadone dosages.
The parameters of a patient's urine, such as pH and specific gravity, vary from one day to the next dependant upon the type and quantities of foods and beverages ingested. Additionally, individuals metabolizes these substances, as well as methadone, at different rates. To account for these variations, a urinary-parameter normalized urine methadone concentration, nup, is calculated that adjusts measured raw urine methadone concentration, u, in accordance with a prescribed methadone dose, urine specific gravity, patient's current body weight (lbs) and urine pH. The relationship between u, pH, dose and specific gravity was empirically developed using nonlinear regression analysis. […]
nup =(k3 /DOSE)^k4 ·(k5 /pH)^k6 […]
Given this value, another set of prediction equations specifying the allowable range for the next measured nup for a particular patient, given a sample size of n, a mean nup for an individual patient and either the patient standard deviation or the population standard deviation (whichever is least), can be calculated as shown in Hahn and Meeker. If the measured value is within the acceptable statistical range, given a previously calculated mean and standard deviation, then it is accepted. If the value is too high or too low, this is marked on the urine drug screen under the column called Pred, as shown in clinical cases #'s 4 and 5, Tables F and G.

The test system of a further data set is migraine. Description: Clinical cases: migraine in patients on methadone maintenance. The format is in vivo, human.
Data set [5] is described as follows: Renal excretion rate in timed urine aliquots of compliant control subjects. As to conditions: as function of urine volume production rate, during a typical day. The format is in vivo, human.
The conditions of data set [6]: to deter illicit opioid use; past studies; cited from earlier work.
Data set [7] in a line: Plasma methadone calculated from spot urine versus measured plasma methadone (FIG. 7).
[8] abbreviates: Table A, compliant patient, dose 60 mg/day, individual dates.
Where [9] appears, read: Table A, compliant patient, dose 70 mg/day, individual dates.
Where [10] appears, read: Table A, mean of 12 tests, 60-70 mg/day.
[11] abbreviates: Table B, patient one, dose 45 mg, individual dates.
The mark [12] stands for this setting: Table B, patient one, mean of 12 tests, 45 mg.
Where [13] appears, read: Table C, patient two, mean of 12 tests, dose 40-100.
Where [14] appears, read: Table D, patient two (barbiturates discontinued), dose 130.
[15] abbreviates: Table D, patient two, mean of 12 tests, dose 110-130.
Where [16] appears, read: Table G, mean of 13 tests, dose 130.
The mark [17] stands for this setting: patient two, 130 mg per day methadone.

In data set [1], `COC(=O)[C@H]1[C@@H](OC(=O)c2ccccc2)C[C@@H]2CC[C@H]1N2C` [Coc] registered a Coc of 0.
For `Cc1nnc2n1-c1ccc(Cl)cc1C(c1ccccc1)=NC2` [alprazolam], the “Xanax level, mean” value in data set [2] (human) stood at 4268 ng/mL. In data set [2], the “SD of alprazolam normalized concentration, % of mean” value was ~15%; the “SEE of nup = k*Dose” value turned out to be 210; the “importance of urine pH for nup” value is recorded as “not important”.
Turning to `COc1ccc2c3c1O[C@H]1[C@@H](O)C=C[C@H]4[C@@H](C2)N(C)CC[C@@]341` [codeine], the “mean codeine level (nup)” value in data set [3] (FIG. 13, patient four stabilized on 90 mg of codeine qd) is recorded as 19,102 +/-3840 ng/ml. In data set [3] (Table J, patient four, mean of 9 tests, 90 mg codeine qd), the “Opi (nup, codeine), mean” value amounted to 19102 ng/mL.
Regarding `CN1C(=O)CN=C(c2ccccc2)c2cc(Cl)ccc21` [diazepam], in data set [2], the “SEE of nup = k*Dose” value amounted to 806, the “importance of urine pH for nup” value is listed as “not important” and the “nup per daily dose (coefficient of nup = k*Dose)” value is 267(SE 16.9).
Regarding `CCC(=O)C(CC(C)N(C)C)(c1ccccc1)c1ccccc1` (stereo not drawn) [methadone], the “nup, urinary-parameter normalized urine methadone concentration” value in data set [4] (setting [8]) is 7448 ng/mL and 9473 ng/mL; in data set [4] (setting [9]), 6966 ng/mL and 7381 ng/mL and 10913 ng/mL and 7430 ng/mL and 7208 ng/mL and 6254 ng/mL and 5532 ng/mL and 7790 ng/mL and 5852 ng/mL and 6881 ng/mL; in data set [4] (setting [11]), 21153 ng/mL and 25720 ng/mL and 22145 ng/mL and 32208 ng/mL and 10174 ng/mL and 13051 ng/mL and 15585 ng/mL and 17845 ng/mL and 7585 ng/mL and 10815 ng/mL and 20168 ng/mL and 18777 ng/mL; in data set [4] (Table C, patient two, dose 50), 2924 ng/mL; in data set [4] (Table C, patient two, dose 65), 1367 ng/mL; in data set [4] (Table C, patient two, dose 80) it was 1070 ng/mL. Besides, the “nup, urinary-parameter normalized urine methadone concentration” value was 7728 ng/mL and 5944 ng/mL and 5117 ng/mL in data set [4] (setting [14]); 6580 ng/mL and 6703 ng/mL and 10880 ng/mL and 6025 ng/mL in data set [4] (Table D, patient two, dose 110); 8970 ng/mL and 6778 ng/mL and 8074 ng/mL and 11966 ng/mL and 6031 ng/mL in data set [4] (Table D, patient two, dose 120). For the same compound, the “u, raw urine methadone concentration” value in data set [4] (setting [8]) was 7049 ng/mL and 4935 ng/mL; in data set [4] (setting [9]) it was 6838 ng/mL and 6536 ng/mL and 5462 ng/mL and 5180 ng/mL and 7398 ng/mL and 5990 ng/mL and 4203 ng/mL and 8469 ng/mL and 3736 ng/mL and 5601 ng/mL; in data set [4] (setting [11]), 1069 ng/mL and 1336 ng/mL and 2109 ng/mL and 1883 ng/mL and 646 ng/mL and 1246 ng/mL and 1285 ng/mL and 757 ng/mL and 4094 ng/mL and 1318 ng/mL and 3900 ng/mL and 915 ng/mL; in data set [4] (Table C, patient two, dose 40), 174 ng/mL and 296 ng/mL; in data set [4] (Table C, patient two, dose 50), 853 ng/mL; in data set [4] (Table C, patient two, dose 80) it was 1120 ng/mL. Moreover, in data set [4] (setting [14]), the “u, raw urine methadone concentration” value is 4915 ng/mL and 6565 ng/mL and 9494 ng/mL. Besides, the “nup, mean” value was 7427 ng/mL in data set [4] (setting [10]); 17265 ng/mL in data set [4] (setting [12]); 1709 ng/mL in data set [4] (setting [13]); 7236 ng/mL in data set [4] (setting [15]); 5130 ng/mL in data set [4] (Table F, mean of 11 tests, dose 120-140); 8396 ng/mL in data set [4] (setting [16]). Besides, the “u, mean” value in data set [4] (setting [10]) is 5950 ng/mL; in data set [4] (setting [12]), 1713 ng/mL; in data set [4] (setting [13]), 1456 ng/mL; in data set [4] (setting [15]), 7036 ng/mL; in data set [4] (Table F, mean of 12 tests, dose 120-140), 8008 ng/mL; in data set [4] (setting [16]), 10585 ng/mL. Moreover, the “Pred (flag: nup outside statistical range predicted for patient)” value in data set [4] (Table F, case #4, dose 140) is “High”; in data set [4] (Table G, case #5, dose 130), “LOW and HIGH”. Also, the “average population standard deviation of nup” value in data set [4] (acceptably compliant methadone patients) is “about 3000”. For the same compound, the “plasma methadone levels over time” value in data set [4] (patient two, Tables C and D, after discontinuing barbiturate-containing compounds) is “increased”. The “migraine attacks during treatment” value in the data set on migraine (patient one, 36 months, 45 mg methadone) came to 2 migraine attacks. In the data set on migraine (patient one, titration to 45 mg methadone), the “frequency and severity of migraines” value was “migraines slowly decayed in frequency and severity”. Moreover, the “plasma methadone level related to migraine attacks” value in the data set on migraine (patient one, transient decrease after vomiting) is “below 80 ng/ml”. In the data set with migraine (setting [17]), the migraine response entry is on record as “migraines ceased completely”. The “plasma methadone level at which migraines ceased completely” value in the data set with migraine (setting [17]) was “above 135 ng/ml”. Further, in data set [5], the “renal excretion rate (mg/min)” value is “relatively constant”. In addition, the “optimum/necessary (24-hour trough) plasma methadone concentration” value in data set [6] was 150 to 600 ng/mL. In addition, the “adjusted squared multiple R, estimated versus measured plasma methadone concentration” value in data set [7] (FIG. 7) is 0.987. Besides, the “slope, estimated versus measured plasma methadone concentration” value in data set [7] (FIG. 7, linear regression, intercept -1.25 (SE 11.495), F-ratio 810) is listed as 0.970 (SE 0.034).
Turning to `Oc1ccc2c3c1O[C@H]1[C@@H](O)CC[C@@]4(O)[C@@H](C2)N(CC2CCC2)CC[C@]314` [nalbuphine], the “control of migraine pain” value in the data set with migraine (patient two, self-administered IM) was “failure”.
Turning to `COc1ccc2c3c1O[C@H]1C(=O)CC[C@@]4(O)[C@@H](C2)N(C)CC[C@]314` [oxycodone], in data set [3] (Table K, patient three, mean of 12 tests, 40 mg per day), the “nup, Opi (oxycodone), mean” value came to 1206 ng/mL. The “oxycodone levels, acceptable limits” value in data set [3] (patient three, 40 mg per day total dose) lay within 800 to 1600 ng/mL.
